For the assay, the target named is T1, recombinant human GR (Homo sapiens, UniProt P04150).
T1 construct: purchased Panvera/Invitrogen P2812 (kit P2893)
T1 sequence (P04150 1-777): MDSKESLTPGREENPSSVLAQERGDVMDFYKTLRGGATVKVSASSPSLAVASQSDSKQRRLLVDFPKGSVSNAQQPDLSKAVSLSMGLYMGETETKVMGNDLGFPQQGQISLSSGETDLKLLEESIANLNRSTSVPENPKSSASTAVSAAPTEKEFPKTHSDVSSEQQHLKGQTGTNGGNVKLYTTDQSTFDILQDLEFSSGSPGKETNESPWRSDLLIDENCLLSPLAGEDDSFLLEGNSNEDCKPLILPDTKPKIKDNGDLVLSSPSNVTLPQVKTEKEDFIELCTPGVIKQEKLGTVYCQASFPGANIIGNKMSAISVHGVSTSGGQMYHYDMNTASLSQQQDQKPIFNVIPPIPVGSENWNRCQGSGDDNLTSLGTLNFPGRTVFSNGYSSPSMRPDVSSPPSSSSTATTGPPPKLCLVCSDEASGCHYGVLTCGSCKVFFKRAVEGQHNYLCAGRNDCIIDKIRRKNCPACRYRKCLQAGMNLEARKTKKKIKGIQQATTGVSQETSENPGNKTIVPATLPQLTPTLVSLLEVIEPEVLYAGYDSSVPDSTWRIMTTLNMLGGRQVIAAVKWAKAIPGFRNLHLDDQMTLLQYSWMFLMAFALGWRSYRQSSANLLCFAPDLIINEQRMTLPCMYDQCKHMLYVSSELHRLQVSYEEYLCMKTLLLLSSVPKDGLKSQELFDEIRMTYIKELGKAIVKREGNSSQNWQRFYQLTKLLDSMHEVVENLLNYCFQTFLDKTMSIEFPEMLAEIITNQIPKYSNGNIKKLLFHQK
In words: Human Glucocorticoid Receptor (GR) Assay, fluorescence polarization (GRhuFL_FP_v2, GR-binders). In kind it is binding. As for the experimental part: Human Glucocorticoid Receptor (GR) Assay
The assay is based on a commercial kit from Panvera/Invitrogen (Part number P2893). The assay technology is fluorescence polarization. […] The GR and Stabilizing Peptide reagents are stored at −70° C. while the GS Red is stored at −20° C. Also included in the kit are 1M DTT (Panvera, Part number P2325, stored at −20° C.) and GR Screening buffer 10× (Panvera, Part number P2814, stored at −70° C. initially but once thawed stored at room temperature). Avoid repeated freeze/thaws for all reagents. The GR Screening buffer 10× comprises 100 mM potassium phosphate, 200 mM sodium molybdate, 1 mM EDTA and 20% DMSO.
0% control was 100% DMSO and 100% control was 10 μM Dexamethasone. Background solution (8 μL; assay buffer 10×, Stabilizing Peptide, DTT and ice cold MQ water) was added to the background wells. GS Red solution (7 μL; assay buffer 10×, Stabilizing Peptide, DTT, GS Red and ice cold water) was added to all wells except background wells. GR solution (7 μL; assay buffer 10×, Stabilizing Peptide, DTT, GR and ice cold water) was added to all wells. The plate was sealed and incubated in a dark at room temperature for 2 hours.

pIC50: −log10 of the molar value.

The term pIC50 denotes the negative decadic logarithm of the IC50, by convention in mol/L. Turning to `Cc1cc(C)c(S(=O)(=O)N[C@@H](C)CNc2cccc3c2cnn3-c2ccc(F)nc2)c(C)c1` [Example 3, N-((1S)-2-{[1-(6-Fluoropyridin-3-yl)-1H-indazol-4-yl]amino}-1-methylethyl)-2,4,6-trimethylbenzenesulfonamide], the negative logarithm of the IC50 (pIC50) is 8.64.
Under `Cc1cc(C)c(S(=O)(=O)NC(COc2cccc3c2cnn3-c2ccc(F)cc2)C(F)(F)F)c(C)c1` (centres unmarked) [Example 4] stands 8.40.
In the case of `COc1ccc(-n2ncc3c(NC[C@H](C)NS(=O)(=O)c4c(C)cc(C)cc4C)cccc32)cc1` [Example 5, N-((1S)-2-{[1-(4-Methoxyphenyl)-1H-indazol-4-yl]amino}-1-methylethyl)-2,4,6-trimethylbenzenesulfonamide] it was 8.27.
With `Cc1cc(C)c(S(=O)(=O)N[C@@H](C)CNc2cccc3c2cnn3-c2cccc(OC(F)(F)F)c2)c(C)c1` [Example 6, 2,4,6-Trimethyl-N-[(1S)-1-methyl-2-({1-[3-(trifluoromethoxy)phenyl]-1H-indazol-4-yl}amino)ethyl]benzenesulfonamide], the negative-log IC50 (pIC50) is 7.82.
Under `Cc1cc(C)c(S(=O)(=O)N[C@@H](C)CNc2cccc3c2cnn3-c2ccccc2)c(C)c1` [Example 7, 2,4,6-Trimethyl-N-{(1S)-1-methyl-2-[(1-phenyl-1H-indazol-4-yl)amino]ethyl}benzenesulfonamide] stands 8.46; under `COc1cccc(-n2ncc3c(NC[C@H](C)NS(=O)(=O)c4c(C)cc(C)cc4C)cccc32)c1` [Example 8, N-((1S)-2-{[1-(3-Methoxyphenyl)-1H-indazol-4-yl]amino}-1-methylethyl)-2,4,6-trimethylbenzenesulfonamide], 8.16.
As for `Cc1cccc(-n2ncc3c(NC[C@H](C)NS(=O)(=O)c4c(C)cc(C)cc4C)cccc32)c1` [Example 9, 2,4,6-Trimethyl-N-((1S)-1-methyl-2-{[1-(3-methylphenyl)-1H-indazol-4-yl]amino}ethyl)benzenesulfonamide], the pIC50 is 8.42.
In the case of `Cc1cc(C)c(S(=O)(=O)N[C@@H](C)CNc2cccc3c2cnn3-c2ccnc(F)c2)c(C)c1` [Example 10, N-((1S)-2-{[1-(2-Fluoropyridin-4-yl)-1H-indazol-4-yl]amino}-1-methylethyl)-2,4,6-trimethylbenzenesulfonamide] it was 8.15; in that of `COc1ccc(-n2ncc3c(NC[C@H](C)NS(=O)(=O)c4c(C)cc(C)cc4C)cccc32)cn1` [Example 11, N-((1S)-2-{[1-(6-Methoxypyridin-3-yl)-1H-indazol-4-yl]amino}-1-methylethyl)-2,4,6-trimethylbenzenesulfonamide], 8.18.
In the case of `Cc1ccc(-n2ncc3c(NC[C@H](C)NS(=O)(=O)c4c(C)cc(C)cc4C)cccc32)cc1` [Example 12, 2,4,6-Trimethyl-N-((1S)-1-methyl-2-{[1-(4-methylphenyl)-1H-indazol-4-yl]amino}ethyl)benzenesulfonamide] it was 8.41; in that of `Cc1cc(C)c(S(=O)(=O)N[C@@H](C)CNc2cccc3c2cnn3-c2cccc(F)c2)c(C)c1` [Example 13, N-((1S)-2-{[1-(3-Fluorophenyl)-1H-indazol-4-yl]amino}-1-methylethyl)-2,4,6-trimethylbenzenesulfonamide], 8.40.
Turning to `Cc1cc(C)c(S(=O)(=O)N[C@@H](C)CNc2cccc3c2cnn3-c2ccncc2)c(C)c1` [Example 14, 2,4,6-Trimethyl-N-{(1S)-1-methyl-2-[(1-pyridin-4-yl-1H-indazol-4-yl)amino]ethyl}benzenesulfonamide], the pIC50 was 8.37.
In the case of `Cc1cc(C)c(S(=O)(=O)N[C@@H](C)CNc2cccc3c2cnn3-c2cncnc2)c(C)c1` [Example 15, 2,4,6-Trimethyl-N-{(1S)-1-methyl-2-[(1-pyrimidin-5-yl-1H-indazol-4-yl)amino]ethyl}benzenesulfonamide], the pIC50 is 8.27.
`Cc1cc(C)c(S(=O)(=O)N[C@@H](C)CNc2cccc3c2cnn3-c2cccnc2)c(C)c1` [Example 16, 2,4,6-Trimethyl-N-{(1S)-1-methyl-2-[(1-pyridin-3-yl-1H-indazol-4-yl)amino]ethyl}benzenesulfonamide]: the pIC50 was 8.25.
Take `Cc1cc(C)c(S(=O)(=O)N[C@@H](C)CNc2cccc3c2cnn3-c2ccc(F)c(C)c2)c(C)c1` [Example 17, N-((1S)-2-{[1-(4-Fluoro-3-methylphenyl)-1H-indazol-4-yl]amino}-1-methylethyl)-2,4,6-trimethylbenzenesulfonamide]: the pIC50 was 8.40.
In the case of `Cc1cc(C)c(S(=O)(=O)N[C@@H](C)CNc2cccc3c2cnn3-c2cccc(C(=O)O)c2)c(C)c1` [Example 18, 3-[4-({(2S)-2-[(2,4,6-Trimethylbenzenesulfonyl)amino]propyl}amino)-1H-indazol-1-yl]benzoic acid] it was 7.24; in that of `Cc1cc(C)c(S(=O)(=O)N[C@@H](C)CNc2cccc3c2cnn3-c2cccc(C(F)(F)F)c2)c(C)c1` [Example 19, 2,4,6-Trimethyl-N-[(1S)-1-methyl-2-({1-[3-(trifluoromethyl)phenyl]-1H-indazol-4-yl}amino)ethyl]benzene sulfonamide], 6.59; in that of `COCc1cccc(-n2ncc3c(NC[C@H](C)NS(=O)(=O)c4c(C)cc(C)cc4C)cccc32)c1` [Example 20, N-[(1S)-2-({1-[3-(Methoxymethyl)phenyl]-1H-indazol-4-yl}amino)-1-methylethyl]-2,4,6-trimethylbenzenesulfonamide], 8.36.
In the case of `COc1ccc(-n2ncc3c(NC[C@H](C)NS(=O)(=O)c4c(C)cc(C)cc4C)cccc32)cc1F` [Example 21, N-((1S)-2-{[1-(3-Fluoro-4-methoxy-phenyl)-1H-indazol-4-yl]amino}-1-methylethyl)-2,4,6-trimethylbenzenesulfonamide], the pIC50 is 8.57.
In the case of `Cc1cc(C)c(S(=O)(=O)N[C@@H](C)CNc2cccc3c2cnn3-c2ccc(Cl)cc2)c(C)c1` [Example 22, N-((1S)-2-{[1-(4-Chlorophenyl)-1H-indazol-4-yl]amino}-1-methylethyl)-2,4,6-trimethylbenzenesulfonamide] it was 8.46; in that of `Cc1cc(C)c(S(=O)(=O)N[C@@H](C)CNc2c(C)ccc3c2cnn3-c2ccc(F)cc2)c(C)c1` [Example 23, N-((1S)-2-{[1-(4-Fluorophenyl)-5-methyl-1H-indazol-4-yl]amino}-1-methylethyl)-2,4,6-trimethylbenzenesulfonamide], 8.14.
In the case of `Cc1cc(C)c(S(=O)(=O)NC[C@@H](C)Nc2cccc3c2cnn3-c2ccc(F)cc2)c(C)c1` [Example 24, N-((2R)-2-{[1-(4-Fluorophenyl)-1H-indazol-4-yl]amino}propyl)-2,4,6-trimethylbenzenesulfonamide] it was 8.06; in that of `Cc1nn(C2CCCC2)c(C)c1S(=O)(=O)N[C@@H](C)CNc1cccc2c1cnn2-c1ccc(F)cc1` [Example 25], 8.42; in that of `Cc1nn(C2CCCC2)c(C)c1S(=O)(=O)N[C@@H](C)CNc1cccc2c1cnn2-c1ccc(F)nc1` [Example 26, 1-Cyclopentyl-N-((1S)-2-{[1-(6-fluoropyridin-3-yl)-1H-indazol-4-yl]amino}-1-methylethyl)-3,5-dimethyl-1H-pyrazole-4-sulfonamide], 8.52.
For the compound `Cc1nn(C2CCCC2)c(C)c1S(=O)(=O)N[C@@H](C)CNc1cccc2c1cnn2-c1ccc(OC(F)(F)F)cc1` [Example 27, 1-Cyclopentyl-3,5-dimethyl-N-[(1S)-1-methyl-2-({1-[4-(trifluoromethoxy)phenyl]-1H-indazol-4-yl}amino)ethyl]-1H-pyrazole-4-sulfonamide], the pIC50 was 7.92.
`COc1ncc(-n2ncc3c(NC[C@H](C)NS(=O)(=O)c4c(C)nn(C5CCCC5)c4C)cccc32)cn1` [Example 28, 1-Cyclopentyl-N-((1S)-2-{[1-(2-methoxypyrimidin-5-yl)-1H-indazol-4-yl]amino}-1-methylethyl)-3,5-dimethyl-1H-pyrazole-4-sulfonamide]: the negative-log IC50 (pIC50) is 7.64.
